Molecular target: T1, F508del (Homo sapiens, UniProt P13569, DEL508-508)
T1 construct: expressed in transfected cells
Experiment: Protocol 1: membrane potential optical assay (FLIPR III, voltage sensing dye), identification of potentiator compounds
Type: cell-based
Conditions: Table 3, compounds of Table 1
How it was run: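 Membrane potential in forskolin-activated, temperature-rescued F508del NIH 3T3 cells is followed with a voltage-sensing dye on FLIPR III. A chloride ion gradient created at the single addition step provides the driving force, after prior compound treatment.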

T1 sequence (P13569 with tags, fused parts or gaps DEL508-508): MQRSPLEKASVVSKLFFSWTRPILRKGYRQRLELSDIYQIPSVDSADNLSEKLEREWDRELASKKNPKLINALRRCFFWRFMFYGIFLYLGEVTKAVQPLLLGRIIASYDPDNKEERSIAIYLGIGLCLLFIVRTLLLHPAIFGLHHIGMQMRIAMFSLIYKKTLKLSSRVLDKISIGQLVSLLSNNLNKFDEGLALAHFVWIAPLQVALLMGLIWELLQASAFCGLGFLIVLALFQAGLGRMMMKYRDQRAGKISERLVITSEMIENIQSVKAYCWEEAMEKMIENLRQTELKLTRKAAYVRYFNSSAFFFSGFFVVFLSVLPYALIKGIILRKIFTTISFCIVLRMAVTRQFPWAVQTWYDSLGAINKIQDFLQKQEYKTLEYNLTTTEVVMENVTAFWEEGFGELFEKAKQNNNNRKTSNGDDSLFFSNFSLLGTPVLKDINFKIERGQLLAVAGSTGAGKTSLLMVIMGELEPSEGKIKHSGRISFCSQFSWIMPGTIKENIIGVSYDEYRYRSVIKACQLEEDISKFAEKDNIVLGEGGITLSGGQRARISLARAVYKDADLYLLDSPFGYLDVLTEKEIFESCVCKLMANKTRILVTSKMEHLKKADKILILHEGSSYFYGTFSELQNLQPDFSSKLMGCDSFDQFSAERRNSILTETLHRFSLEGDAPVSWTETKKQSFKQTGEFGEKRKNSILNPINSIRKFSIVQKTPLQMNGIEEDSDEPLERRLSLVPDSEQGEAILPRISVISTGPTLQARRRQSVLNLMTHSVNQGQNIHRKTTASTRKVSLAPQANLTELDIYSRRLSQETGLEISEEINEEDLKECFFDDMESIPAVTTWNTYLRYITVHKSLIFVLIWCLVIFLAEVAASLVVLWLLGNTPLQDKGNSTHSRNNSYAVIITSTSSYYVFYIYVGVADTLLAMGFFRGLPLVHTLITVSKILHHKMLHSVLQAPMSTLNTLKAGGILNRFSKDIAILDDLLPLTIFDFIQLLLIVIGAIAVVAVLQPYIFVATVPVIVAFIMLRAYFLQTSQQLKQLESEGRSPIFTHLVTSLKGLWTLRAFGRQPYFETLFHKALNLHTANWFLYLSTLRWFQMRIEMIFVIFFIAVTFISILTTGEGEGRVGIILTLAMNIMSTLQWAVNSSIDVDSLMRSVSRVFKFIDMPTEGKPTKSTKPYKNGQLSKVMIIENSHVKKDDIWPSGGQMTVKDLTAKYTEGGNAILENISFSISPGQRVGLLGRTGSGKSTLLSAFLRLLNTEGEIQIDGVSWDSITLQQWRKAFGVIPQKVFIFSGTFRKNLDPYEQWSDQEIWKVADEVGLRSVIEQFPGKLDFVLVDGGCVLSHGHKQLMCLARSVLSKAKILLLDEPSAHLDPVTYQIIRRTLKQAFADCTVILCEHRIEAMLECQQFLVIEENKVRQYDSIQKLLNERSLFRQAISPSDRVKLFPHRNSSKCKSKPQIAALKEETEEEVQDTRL

Structure (SMILES)	EC30
C=C1CCN(c2nc(-c3cc(F)cc(OCC(C)C)c3)ccc2C(=O)NS(=O)(=O)c2cccc(N)n2)CC1 [Compound 1162, N-[(6-amino-2-pyridyl)sulfonyl]-6-(3-fluoro-5-isobutoxy-phenyl)-2-(4-methylene-1-piperidyl)pyridine-3-carboxamide]	+++ (“+++” means <3 uM)
COC1CCN(c2nc(C(C)(C)C)ccc2C(=O)NS(=O)(=O)c2cccc(N)n2)CC1 [Compound 1164, N-[(6-amino-2-pyridyl)sulfonyl]-6-tert-butyl-2-(4-methoxy-1-piperidyl)pyridine-3-carboxamide]	++ (“++” means between 3 uM and 10 uM)
CC(C)COc1cc(F)cc(-c2ccc(C(=O)NS(=O)(=O)c3cccc(N)n3)c(OC(C)C3CC3)n2)c1 (centres unmarked) [Compound 1165, N-[(6-amino-2-pyridyl)sulfonyl]-2-(1-cyclopropylethoxy)-6-(3-fluoro-5-isobutoxy-phenyl)pyridine-3-carboxamide]	++ (“++” means between 3 uM and 10 uM)
CC(C)COc1cc(F)cc(-c2ccc(C(=O)NS(=O)(=O)c3cccc(N)n3)c(N3[C@H](C)CCC3(C)C)n2)c1 [Compound 1166, N-[(6-amino-2-pyridyl)sulfonyl]-6-(3-fluoro-5-isobutoxy-phenyl)-2-[(5R)-2,2,5-trimethylpyrrolidin-1-yl]pyridine-3-carboxamide]	+++ (“+++” means <3 uM)
Cc1cc(C)c(Cn2nc(C(C)(C)C)cc2C(=O)NS(=O)(=O)c2ccccc2N)c(C)c1 [Compound 1167, N-(2-aminophenyl)sulfonyl-5-tert-butyl-2-[(2,4,6-trimethylphenyl)methyl]pyrazole-3-carboxamide]	+++ (“+++” means <3 uM)
CC(C)COc1cc(F)cc(-c2ccc(C(=O)NS(=O)(=O)c3nc(N)cs3)c(N3CCC(C)(C)CC3)n2)c1 [Compound 1168, N-(4-aminothiazol-2-yl)sulfonyl-2-(4,4-dimethyl-1-piperidyl)-6-(3-fluoro-5-isobutoxy-phenyl)pyridine-3-carboxamide]	+++ (“+++” means <3 uM)
CC(C)COc1cc(F)cc(-c2ccc(C(=O)NS(=O)(=O)c3ccn[nH]3)c(N3CCCC(C)C3C)n2)c1 (centres unmarked) [Compound 1169, 2-(2,3-dimethyl-1-piperidyl)-6-(3-fluoro-5-isobutoxy-phenyl)-N-(1H-pyrazol-5-ylsulfonyl)pyridine-3-carboxamide]	++ (“++” means between 3 uM and 10 uM)
CC(C)COc1cc(F)cc(-c2ccc(C(=O)NS(=O)(=O)c3cccc(N)n3)c(N3CCC[C@@H]3C(C)(C)C)n2)c1 [Compound 1170, N-[(6-amino-2-pyridyl)sulfonyl]-2-[(2R)-2-tert-butylpyrrolidin-1-yl]-6-(3-fluoro-5-isobutoxy-phenyl)pyridine-3-carboxamide]	+++ (“+++” means <3 uM)
COc1cccc(S(=O)(=O)NC(=O)c2ccc(-c3cc(F)cc(OCC(C)C)c3)nc2N2CC(C)CC2(C)C)c1 (centres unmarked) [Compound 1171, 6-(3-fluoro-5-isobutoxy-phenyl)-N-(3-methoxyphenyl)sulfonyl-2-(2,2,4-trimethylpyrrolidin-1-yl)pyridine-3-carboxamide]	+++ (“+++” means <3 uM)
CC(C)COc1cc(F)cc(-c2ccc(C(=O)NS(=O)(=O)c3ccn[nH]3)c(N3CCC(C)C(C)(C)C3)n2)c1 (centres unmarked) [Compound 1174, 6-(3-fluoro-5-isobutoxy-phenyl)-N-(1H-pyrazol-5-ylsulfonyl)-2-(3,3,4-trimethyl-1-piperidyl)pyridine-3-carboxamide]	+++ (“+++” means <3 uM)
Cc1ccc(-c2nc(C(C)(C)C)ccc2C(=O)NS(=O)(=O)c2ccccc2O)cc1 [Compound 1175, 6-tert-butyl-N-(2-hydroxyphenyl)sulfonyl-2-(p-tolyl)pyridine-3-carboxamide]	+++ (“+++” means <3 uM)
CC(C)COc1cc(F)cc(-c2ccc(C(=O)NS(=O)(=O)c3ccn[nH]3)c(N3C[C@H](C)CC3(C)C)n2)c1 [Compound 1176, 6-(3-fluoro-5-isobutoxy-phenyl)-N-(1H-pyrazol-5-ylsulfonyl)-2-[(4R)-2,2,4-trimethylpyrrolidin-1-yl]pyridine-3-carboxamide]	+++ (“+++” means <3 uM)
CCOc1ccc(-c2ccc(C(=O)NS(=O)(=O)c3ccc[nH]c3=O)c(Oc3c(C)cc(C)cc3C)n2)cc1 [Compound 1179, 6-(4-ethoxyphenyl)-N-[(2-oxo-1H-pyridin-3-yl)sulfonyl]-2-(2,4,6-trimethylphenoxy)pyridine-3-carboxamide]	++ (“++” means between 3 uM and 10 uM)
CC(C)COc1cc(F)cc(-c2ccc(C(=O)NS(=O)(=O)c3cccc(N)n3)c(N3C[C@@H]4CC[C@H]3C4)n2)c1 [Compound 1180, N-[(6-amino-2-pyridyl)sulfonyl]-2-[(1R,4S)-3-azabicyclo[2.2.1]heptan-3-yl]-6-(3-fluoro-5-isobutoxy-phenyl)pyridine-3-carboxamide]	+++ (“+++” means <3 uM)
CC1CN(c2nc(-c3ccc(OCC(C)(C)C)nc3)ccc2C(=O)NS(=O)(=O)c2cccc(N)n2)C(C)(C)C1 (centres unmarked) [Compound 1181, N-[(6-amino-2-pyridyl)sulfonyl]-6-[6-(2,2-dimethylpropoxy)-3-pyridyl]-2-(2,2,4-trimethylpyrrolidin-1-yl)pyridine-3-carboxamide]	+++ (“+++” means <3 uM)
CC(C)Oc1ccc(-c2ccc(C(=O)NS(=O)(=O)c3cccc(N)n3)c(N3CCCCC3C)n2)cn1 (centres unmarked) [Compound 1182, N-[(6-amino-2-pyridyl)sulfonyl]-6-(6-isopropoxy-3-pyridyl)-2-(2-methyl-1-piperidyl)pyridine-3-carboxamide]	++ (“++” means between 3 uM and 10 uM)
CC(C)COc1cc(F)cc(-c2ccc(C(=O)NS(=O)(=O)c3cccc(N)c3)c(N3CC(C)CC3(C)C)n2)c1 (centres unmarked) [Compound 1184, N-(3-aminophenyl)sulfonyl-6-(3-fluoro-5-isobutoxy-phenyl)-2-(2,2,4-trimethylpyrrolidin-1-yl)pyridine-3-carboxamide]	+++ (“+++” means <3 uM)
CCCCOc1ccc(-c2ccc(C(=O)NS(=O)(=O)c3ccc[nH]c3=O)c(Oc3c(C)cc(C)cc3C)n2)cc1F [Compound 1187, 6-(4-butoxy-3-fluoro-phenyl)-N-[(2-oxo-1H-pyridin-3-yl)sulfonyl]-2-(2,4,6-trimethylphenoxy)pyridine-3-carboxamide]	+++ (“+++” means <3 uM)
Cc1cc(C)c(Oc2nc(-c3cccc(OC(C)C)c3)ccc2C(=O)NS(=O)(=O)c2ccc[nH]c2=O)c(C)c1 [Compound 1188, 6-(3-isopropoxyphenyl)-N-[(2-oxo-1H-pyridin-3-yl)sulfonyl]-2-(2,4,6-trimethylphenoxy)pyridine-3-carboxamide]	+++ (“+++” means <3 uM)
CC(C)COc1cc(F)cc(-c2ccc(C(=O)NS(=O)(=O)c3cccc(N)n3)c(N3CCC(=O)C3(C)C)n2)c1 [Compound 1189, N-[(6-amino-2-pyridyl)sulfonyl]-2-(2,2-dimethyl-3-oxo-pyrrolidin-1-yl)-6-(3-fluoro-5-isobutoxy-phenyl)pyridine-3-carboxamide]	+++ (“+++” means <3 uM)

Results, then the molecule that gave them:

EC30	Structure (SMILES)
+++ (“+++” means <3 uM)	COc1cccc2c1CN(Cc1c(C)cc(C)cc1C)C2(C)C(=O)NS(=O)(=O)c1cccc(N)n1 (centres unmarked) [Compound 1161, N-[(6-amino-2-pyridyl)sulfonyl]-4-methoxy-1-methyl-2-[(2,4,6-trimethylphenyl)methyl]isoindoline-1-carboxamide]
+++ (“+++” means <3 uM)	Cc1cc(C)c(Oc2nc(-c3ccc(OC(C)C)nc3)ccc2C(=O)NS(=O)(=O)c2cccc(N)n2)c(C)c1 [Compound 1163, N-[(6-amino-2-pyridyl)sulfonyl]-6-(6-isopropoxy-3-pyridyl)-2-(2,4,6-trimethylphenoxy)pyridine-3-carboxamide]
++ (“++” means between 3 uM and 10 uM)	CC#Cc1ccc(C(=O)NS(=O)(=O)c2cccc(N)n2)c(Oc2c(C)cc(C)cc2C)n1 [Compound 1172, N-[(6-amino-2-pyridyl)sulfonyl]-6-prop-1-ynyl-2-(2,4,6-trimethylphenoxy)pyridine-3-carboxamide]
+++ (“+++” means <3 uM)	COc1ccccc1-c1ccc(C(=O)NS(=O)(=O)c2cccc(N)n2)c(Oc2c(C)cc(C)cc2C)n1 [Compound 1173, N-[(6-amino-2-pyridyl)sulfonyl]-6-(2-methoxyphenyl)-2-(2,4,6-trimethylphenoxy)pyridine-3-carboxamide]
++ (“++” means between 3 uM and 10 uM)	Cc1cc(C)c(Oc2nc(-c3cnn(CC(C)C)c3)ccc2C(=O)NS(=O)(=O)c2cccc(N)n2)c(C)c1 [Compound 1177, N-[(6-amino-2-pyridyl)sulfonyl]-6-(1-isobutylpyrazol-4-yl)-2-(2,4,6-trimethylphenoxy)pyridine-3-carboxamide]
+++ (“+++” means <3 uM)	COc1ccc(F)c(-c2ccc(C(=O)NS(=O)(=O)c3cccc(N)n3)c(Oc3c(C)cc(C)cc3C)n2)c1 [Compound 1178, N-[(6-amino-2-pyridyl)sulfonyl]-6-(2-fluoro-5-methoxy-phenyl)-2-(2,4,6-trimethylphenoxy)pyridine-3-carboxamide]
+ (“+” means greater than 10 uM)	Cc1cc(C)c(Oc2nc(-c3ccc(CO)cc3)ccc2C(=O)NS(=O)(=O)c2cccc(N)n2)c(C)c1 [Compound 1183, N-[(6-amino-2-pyridyl)sulfonyl]-6-[4-(hydroxymethyl)phenyl]-2-(2,4,6-trimethylphenoxy)pyridine-3-carboxamide]
+++ (“+++” means <3 uM)	CCOc1ccc(-c2ccc(C(=O)NS(=O)(=O)c3cccc(N)n3)c(Oc3c(C)cc(C)cc3C)n2)cn1 [Compound 1185, N-[(6-amino-2-pyridyl)sulfonyl]-6-(6-ethoxy-3-pyridyl)-2-(2,4,6-trimethylphenoxy)pyridine-3-carboxamide]
+++ (“+++” means <3 uM)	Cc1cc(C)c(C(C)N2Cc3ccccc3C2C(=O)NS(=O)(=O)c2cccc(N)n2)c(C)c1 (centres unmarked) [Compound 1186, N-[(6-amino-2-pyridyl)sulfonyl]-2-[1-(2,4,6-trimethylphenyl)ethyl]isoindoline-1-carboxamide]

Source: patent US10758534B2 (Vertex Pharmaceuticals Incorporated, priority 2014, dated 2020)
